Values of other authors in US10034864B2, “1,2,5-oxadiazoles as inhibitors of indoleamine 2,3-dioxygenase” (Incyte Corporation, priority 2008, dated 2018).

Key:
LLC tumors = LLC tumors in C57Bl/6 mice, versus placebo (Friberg 2002)
P815 tumor = settings: pre-immunized immune-competent mice challenged with tumor cells (Uyttenhove 2003)

Cn1cc(C[C@H](N)C(=O)O)c2ccccc21 [Example 1-MT, 1-methyl-tryptophan]
formation of tumors (LLC tumors): markedly delayed | growth of tumors (P815 tumor): inhibited
